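Here, GI50 denotes the concentration required for 50% inhibition of growth. The concentration for full growth arrest is given as TGI.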
Experiments:
Assay in all cases: inhibition of tumour cell growth, NCI panel, 384-well format
[1] = tested on: OVCAR-3 ovarian
[2] = tested on: IGROV1 ovarian
[3] = tested on: TK-10 renal
[4] = tested on: SF-268 CNS
[5] = tested on: UO-31 renal
[6] = tested on: SK-OV-3 ovarian
[7] = tested on: HCT-15 colon
[8] = tested on: NCI-H226 lung
[9] = tested on: UACC-62 melanoma
[10] = tested on: MDA-MB-468 breast
[11] = tested on: SW-620 colon
[12] = tested on: OVCAR-4 ovarian
[13] = tested on: T-47D breast
[14] = tested on: MALME-3M melanoma
[15] = tested on: COLO 205 colon
[16] = tested on: CAKI-1 renal
[17] = tested on: SF-295 CNS
[18] = tested on: M14 melanoma
[19] = tested on: UACC-257 melanoma
[20] = tested on: 786-0 renal
[21] = tested on: HT29 colon
[22] = tested on: A549 NSCLC
[23] = tested on: LOX IMVI melanoma
[24] = tested on: HOP-62 NSCLC
[25] = tested on: HCC-2998 colon
[26] = tested on: U251 glioblastoma
[27] = tested on: BT-549 breast
[28] = tested on: SR leukemia
[29] = tested on: NCI/ADR-RES ovarian
[30] = tested on: MDA-MB-435 melanoma
[31] = tested on: NCI-H522 lung
[32] = tested on: ACHN renal
[33] = tested on: SK-MEL-28 melanoma
[34] = tested on: SNB-75 CNS
[35] = tested on: SK-MEL-5 melanoma
[36] = tested on: OVCAR-5 ovarian
[37] = tested on: DU-145 prostate
[38] = tested on: HL-60(TB) leukemia
[39] = tested on: RXF 393 renal
[40] = tested on: NCI-H23 lung
[41] = tested on: MDA-MB-231 breast
[42] = tested on: RPMI-8226 leukemia
[43] = tested on: SNB-19 CNS
[44] = tested on: SN12C renal
[45] = tested on: EKVX NSCLC
[46] = tested on: NCI-H460 NSCLC
[47] = tested on: K-562 leukemia
[48] = tested on: PC-3 prostate
[49] = tested on: OVCAR-8 ovarian
[50] = tested on: HOP-92 NSCLC
[51] = tested on: CCRF-CEM leukemia
[52] = tested on: A498 renal
[53] = tested on: KM12 colon
[54] = tested on: HS 578T breast
[55] = tested on: MCF7 breast
[56] = tested on: NCI-H322M lung
[57] = tested on: SF-539 CNS
[58] = tested on: MOLT-4 leukemia

CN(C)c1cc2c(cc1Sc1nc3c(N)nccc3n1CCNCC(C)(C)C)OCO2
GI50 [1]: 234 nM | TGI [1]: 631 nM | GI50 [2]: 270 nM | TGI [2]: 742 nM | GI50 [3]: 400 nM | TGI [3]: 5550 nM | GI50 [4]: 221 nM | TGI [4]: 11100 nM | GI50 [5]: 683 nM | TGI [5]: 19500 nM | GI50 [6]: 231 nM | TGI [6]: 10800 nM | GI50 [7]: 144 nM | TGI [7]: 8640 nM | GI50 [8]: 387 nM | TGI [8]: 13200 nM | GI50 [9]: 226 nM | TGI [9]: 590 nM | GI50 [10]: 307 nM | TGI [10]: 507 nM | GI50 [11]: 215 nM | TGI [11]: 715 nM | GI50 [12]: 324 nM | TGI [12]: 883 nM | GI50 [13]: 350 nM | TGI [13]: 10500 nM | GI50 [14]: 241 nM | TGI [14]: 548 nM | GI50 [15]: 66.4 nM | TGI [15]: 325 nM | GI50 [16]: 449 nM | TGI [16]: 15800 nM | GI50 [17]: 218 nM | TGI [17]: 499 nM | GI50 [18]: 303 nM | TGI [18]: 3440 nM | GI50 [19]: 507 nM | TGI [19]: 4140 nM | GI50 [20]: 280 nM | TGI [20]: 963 nM | GI50 [21]: 188 nM | TGI [21]: 2260 nM | GI50 [22]: 131 nM | TGI [22]: 12100 nM | GI50 [23]: 177 nM | TGI [23]: 330 nM | GI50 [24]: 292 nM | TGI [24]: 934 nM | GI50 [25]: 183 nM | TGI [25]: 419 nM | GI50 [26]: 352 nM | TGI [26]: 1420 nM | GI50 [27]: 118 nM | TGI [27]: 664 nM | GI50 [28]: 62.8 nM | TGI [28]: 197 nM | GI50 [29]: 280 nM | TGI [29]: 625 nM | GI50 [30]: 447 nM | TGI [30]: 15300 nM | GI50 [31]: 191 nM | TGI [31]: 377 nM | GI50 [32]: 376 nM | TGI [32]: 13200 nM | GI50 [33]: 327 nM | TGI [33]: 11900 nM | GI50 [34]: 273 nM | TGI [34]: 553 nM | GI50 [35]: 79.8 nM | TGI [35]: 1450 nM | GI50 [36]: 390 nM | TGI [36]: 9750 nM | GI50 [37]: 228 nM | TGI [37]: 1130 nM | GI50 [38]: 111 nM | TGI [38]: 241 nM | GI50 [39]: 127 nM | TGI [39]: 348 nM | GI50 [40]: 134 nM | TGI [40]: 467 nM | GI50 [41]: 231 nM | TGI [41]: 608 nM | GI50 [42]: 135 nM | TGI [42]: 291 nM | GI50 [43]: 423 nM | TGI [43]: 6840 nM | GI50 [44]: 221 nM | TGI [44]: 506 nM | GI50 [45]: 344 nM | TGI [45]: 11800 nM | GI50 [46]: 138 nM | TGI [46]: 297 nM | GI50 [47]: 199 nM | TGI [47]: 737 nM | GI50 [48]: 229 nM | TGI [48]: 517 nM | GI50 [49]: 174 nM | TGI [49]: 349 nM | GI50 [50]: 183 nM | TGI [50]: 503 nM | GI50 [51]: 118 nM | TGI [51]: 312 nM | GI50 [52]: 82.9 nM | TGI [52]: 11900 nM | GI50 [53]: 171 nM | TGI [53]: 6350 nM | GI50 [54]: 261 nM | TGI [54]: 769 nM | GI50 [55]: 89.5 nM | TGI [55]: 1680 nM | GI50 [56]: 299 nM | TGI [56]: 14800 nM | GI50 [57]: 236 nM | TGI [57]: 541 nM | GI50 [58]: 58.9 nM | TGI [58]: 192 nM
